Source: patent US20100166727A1, “S-Adenosylmethionine And Methylthioadensosine In Chemoprevention And Treatment Of Colon Polyps And Cancer” (UNIVERSITY OF SOUTHERN CALIFORNIA, priority 2007, published 2010)
Entries after “also recorded” stand apart in the source; their conditions may differ.

How the values were obtained:
MAT2A [1] = test: MAT2A mRNA levels by real-time PCR in HT-29 cells; assay type: cell-based, human
Protocol: (§1) HT-29 and RKO cells were obtained from the Cell Culture Core of the USC Liver Disease Research Center and grown according to instructions provided by the American Type Culture Collection (ATCC, Rockville, Md.). Prior to treatment with growth factors, SAMe or MTA, medium was changed to 0.1% FBS overnight.
RNA interference (RNAi) experiments were performed using Lipofectamine RNAiMax (Invitrogen) according to the manufacturer's instructions. Small interfering RNA (siRNA) oligonucleotides for MAT2A and scrambled siRNA were synthesized by the USC Norris Comprehensive Cancer Center Microchemical Core Laboratory, and annealed to form duplexes. Stealth RNAi for MAT2A and Stealth RNAi negative control duplexes were synthesized by Invitrogen (Carlsbad, Calif.). The following siRNA sequences were used: si-MAT2A #1, 5′-[…]-3′ (sense) and 5′-[…]-3′ (antisense); si-control with scrambled sequence (negative control siRNA having no perfect matches to known human genes), 5′-[…]dTdT-3′ (sense) and 5% […]dTdT-3′ (antisense); stealth RNAi-MAT2A #5, 5′-[…]-3′ (sense) and 5′-[…]-3′ (antisense). […]
(§2) Total RNA was isolated by the EZgeno total RNA isolation kit (Genemega, San Giego, Calif.), and subjected to reverse transcription (RT) by using M-MLV Reverse transcriptase (Invitrogen). 2 μl of RT product was subjected to quantitative real-time PCR analysis. The primers and TaqMan probes for MAT2A, MAT2β and Universal PCR Master Mix were purchased from ABI (Foster City, Calif.). Hypoxanthine phosphoribosyl-transferase 1 (HPRT1) and ubiquitin C (UBC) were used as housekeeping genes (48). The thermal profile consisted of 1 cycle at 95° C. for 15 minutes followed by 40 cycles at 95° C. for 15 seconds and at 60° C. for 1 minute. The expression of MAT2A and MAT2β was checked by normalizing the Ct of MAT2A and MAT2β to that of the control housekeeping gene (HPRT1 or UBC) (49). The delta Ct obtained was used to find the relative expression of MAT genes according to the formula: Relative expression=2·^ΔCt, where ΔCt=ΔCt of MAT genes in colon cancer or treated cells—ΔCt of MAT genes in normal colon or control cells.

MAT2A [2] = test: MAT2A expression in NCM460 cells; assay type: cell-based, human; conditions: 5 mM SAMe or 1 mM MTA, 6 hrs
Protocol: as §2
NCM460 cell line was originally established in 1996 as the first non-malignant colonic epithelial cell line derived from the transverse colon (43). When first developed, cells formed both monolayer and in suspension, express villin and cytokeratin staining (43). […] The NCM460 cells in monolayer have features of transverse colon crypt cells (69). […]

HT-29 cells [3] = test: Cellular SAMe and MTA levels in HT-29 cells; assay type: cell-based, human
Protocol: as §1
(§3) Cellular SAMe and MTA levels were measured (51) and polyamine levels were determined (52).

[4] = tested on: ornithine decarboxylase (ODC); test: ODC expression by real-time PCR in HT-29 cells; assay type: cell-based, human
SPD syn = SPD syn expression by real-time PCR in HT-29 cells; assay type: cell-based, human
[5] = tested on: spermine synthase (SPM syn); test: SPM syn expression by real-time PCR in HT-29 cells; assay type: cell-based, human
[6] = Stability of SAMe and MTA in culture medium without cells and in water; assay type: physicochemical; conditions: culture medium at 37° C., MTA 1 mM
Protocol: FIG. 12. […] SAMe (A) and MTA (B) levels were measured in culture medium without cells with starting SAMe concentrations ranging from 1 to 5 mM and MTA concentration at 1 mM.
To test whether the mitogens-induce increase in. MAT2A is to provide increased SAMe necessary for polyamine synthesis in growing cells, SAMe and polyamine levels were measured following treatment of HT-29 cells with mitogens.

NCM460 cells = test: Toxicity and apoptosis in NCM460 normal colonic epithelial cells; assay type: cell-based, human
Protocol: In these experiments the total treatment duration was limited to 16 hrs to avoid the apoptotic effect. […] Apoptosis was measured by Hoechst staining or Annexin V and propidium iodide staining on flow cytometry.

c-FLIP = c-FLIP mRNA level by real-time PCR in HT-29 cells; assay type: cell-based, human; conditions: SAMe 2 mM, MTA 1 mM, 6 hrs, mean±SE
Bcl-xL = Bcl-xL mRNA level in HT-29 cells; assay type: cell-based, human; conditions: MTA 1 mM, 6 hrs
Protocol: SAMe and MTA induce apoptosis in liver cancer cells by the mitochondrial pathway (14). […] In liver cancer cells, SAMe and MTA induced selectively expression of Bcl-xs, a pro-apoptotic protein (67). We examined whether the same occurs in HT-29 cells. After 6 hrs of MTA (1 mM) treatment, Bcl-xL mRNA level fell by 53% (47±4% of control, results are mean±SE from 4 experiments, p<0.0005). […] This makes these agents particularly attractive in targeting colon cancer cells.

MAT2A [7] = test: Intestinal MAT2A expression in mice given SAMe or MTA in drinking water; assay type: in vivo
Protocol: FIG. 30. Effects of oral SAMe and MTA on colonic mRNA levels of MAT2A, MAT2 β, and cFLIPL. Mice were fed SAMe (150 to 450 mg/kg/d) or MTA (75 or 150 mg/kg/d) in drinking water for 6 days. Colonic mucosa was scrapped off and gene expression measured by real-time PCR.
Three-month old male C57/B6 mice were fed ad libitum a standard diet (Harland Tekiad irradiated mouse diet 7912, Madison, Wis.), caged individually and had free access to water supplemented with SAMe ([…]), MTA (75 mg/kg/d), phosphate buffered saline (vehicle for SAMe) or DMSO (0.2%, vehicle for MTA) for 6 days. SAMe and MTA were made fresh daily. The amount of water intake, body weight, and animal behavior were closely monitored. After 6 days, animals were sacrificed, intestine was cut open along the longitudinal axis, and mucosa was stripped from the intestine (46). Mucosa was weighed and a portion processed for SAMe measurement as described below, the rest snap frozen for subsequent RNA extraction.
as §2

MAT2β [8] = test: Colonic MAT2β mRNA in mice fed SAMe or MTA; assay type: in vivo; conditions: 75 mg/kg/d MTA, 6 days
Protocol: FIG. 30. Effects of oral SAMe and MTA on colonic mRNA levels of MAT2A, MAT2 β, and […]. Mice were fed SAMe (150 to 450 mg/kg/d) or MTA (75 or 150 mg/kg/d) in drinking water for 6 days. Colonic mucosa was scrapped off and gene expression measured by real-time PCR.

[9] = Tolerability of oral SAMe and MTA in mice; assay type: in vivo; conditions: oral in drinking water, 6 days; weight gain and water consumption similar to controls
Source text: SAMe and MTA were made fresh daily. The amount of water intake, body weight, and animal behavior were closely monitored. After 6 days, animals were sacrificed, intestine was cut open along the longitudinal axis, and mucosa was stripped from the intestine (46). Mucosa was weighed and a portion processed for SAMe measurement as described below, the rest snap frozen for subsequent RNA extraction.

colon cancer cells = conditions: by lowering c-FLIP expression; cited from earlier work
MAT2A [10] = test: MAT2A mRNA levels by real-time PCR in RKO cells; assay type: cell-based, human; conditions: RKO cells, growth factor 100 ng/ml
Protocol: as §1
RNA interference (RNAi) experiments were performed using Lipofectamine RNAiMax (Invitrogen) according to the manufacturer's instructions. Small interfering RNA (siRNA) oligonucleotides for MAT2A and scrambled siRNA were synthesized by the USC Norris Comprehensive Cancer Center Microchemical Core Laboratory, and annealed to form duplexes. Stealth RNAi for MAT2A and Stealth RNAi negative control duplexes were synthesized by Invitrogen (Carlsbad, Calif.). The following siRNA sequences were used: si-MAT2A #1, 5′-[…]-3′ (sense) and 5′-[…]-3′ (antisense); si-control with scrambled sequence (negative control siRNA having no perfect matches to known human genes), 5′-[…]dTdT-3′ (sense) and 5% […]dTdT-3′ (antisense); stealth RNAi-MAT2A #5, 5′-[…]-3′ (sense) and 5′-[…]-3′ (antisense). Transfection was allowed to proceed 72 hours before collection for different assays.
as §2

MAT2β [11] = test: MAT2β mRNA levels by real-time PCR in HT-29 cells; assay type: cell-based, human; conditions: HT29 cells, growth factor 100 ng/ml
Protocol: as §1, §2

MAT2β [12] = test: MAT2β (total, V1, V2) mRNA levels by real-time PCR in RKO cells; assay type: cell-based, human; conditions: growth factor 100 ng/ml
Protocol: as §1
as §2, with “The delta Ct obtained was used to find the relative expression of MAT genes according to the formula: Relative expression=2·^ΔCt, where ΔCt=ΔCt of MAT genes in colon cancer or treated cells—ΔCt of MAT genes in normal colon or control cells.” left out
To better understand functional differences between the two MAT2β variants, we created vectors expressing either V1 or V2 using the mammalian expression vector pcDNA3.1D/V5-His/TOPO vector (Invitrogen). […] Cell growth was measured by 3H-thymidine incorporation into DNA. […]

HT-29 cells [13] = test: Polyamine levels in HT-29 cells; assay type: cell-based, human; conditions: 6 hrs, mitogen 100 ng/ml
Protocol: as §1, §3

[14] = 75 mg/kg/d in drinking water, six days

With CSC[C@H]1O[C@@H](n2cnc3c(N)ncnc32)[C@H](O)[C@@H]1O [MTA, methylthioadenosine] the “reduction of baseline expression of MAT2A” value (MAT2A [1]; SAMe 5 mM or MTA 1 mM, 6 hrs, HT29 cells) was 60%, the “reduction of MAT2A expression” value (MAT2A [2]) was 40% and the MTA level (HT-29 cells [3]; 6 hrs, MTA 1 mM) was 0.652 ± 0.123 nmol/mg protein. It also gave an SAMe level (HT-29 cells [3]; 6 hrs, MTA 1 mM) of 0.81 ± 0.09 nmol/mg protein, an MTA level (HT-29 cells [3]; 16 hrs, MTA 1 mM) of 0.689 ± 0.108 nmol/mg protein and an SAMe level (HT-29 cells [3]; 16 hrs, MTA 1 mM) of 0.54 ± 0.01 nmol/mg protein. The “lowering of ornithine decarboxylase (ODC) mRNA level” value ([4]; MTA treatment for 6 hrs) was 30%, the “lowering of spermidine synthase mRNA level” value (SPD syn; MTA treatment for 6 hrs) was 30% and the “lowering of spermine synthase mRNA level” value ([5]; MTA treatment for 6 hrs) was 30%. The stability [6] was “highly stable; also recorded: no change in 24 hrs”, the “toxicity in NCM460 cells” value (NCM460 cells; SAMe 0.2 to 2 mM, MTA 0.2 to 5 mM) was “did not cause any toxicity” and the “apoptosis in NCM460 cells” value (NCM460 cells; SAMe up to 2 mM, MTA up to 5 mM) was “do not cause apoptosis”. For the same molecule, the “c-FLIP mRNA level” value (c-FLIP) was 47±4 % of control, the “fall of Bcl-xL mRNA level” value (Bcl-xL) was 53% and the “Bcl-xL mRNA level” value (Bcl-xL; mean±SE from 4 experiments) was 47±4 % of control. The “MAT2A expression, colon” value (MAT2A [7]; [14]) was 87 ± 20 % of control MAT2A mRNA levels, the “MAT2A expression, proximal small intestine” value (MAT2A [7]; [14]) was 82 ± 2 % of control MAT2A mRNA levels and the “inhibition in colonic MAT2A mRNA level” value (MAT2A [7]; MTA 75 mg/kg/d, 6 days) was 85%. The “decrease of MAT2A expression in proximal small intestine” value (MAT2A [7]; SAMe 150 mg/kg/d, MTA 75 mg/kg/d, six days) was 20%, the “inhibition of MAT2β expression” value (MAT2β [8]) was 60% and the tolerability / toxicity [9] was “well tolerated; also recorded: no apparent toxicity”.
In the case of O=c1[nH]cc(F)c(=O)[nH]1 [5-FU, 5-fluorouracil], the TRAIL-induced apoptosis (colon cancer cells) is given as “sensitize colon cancer cells to TRAIL-induced apoptosis”.
For “Leptin: growth factor implicated in colon cancer growth and invasion”, the “MAT2A mRNA levels after growth factor” value (MAT2A [1]; HT-29 cells, growth factor 100 ng/ml) was “near doubling”, the “MAT2A mRNA levels after growth factor” value (MAT2A [10]) was “near doubling” and the “MAT2β expression after growth factor” value (MAT2β [11]) was “not affected”. For the same molecule, the “MAT2β expression after growth factor” value (MAT2β [12]) was “not affected”, the MTA level (HT-29 cells [3]; 6 hrs, mitogen 100 ng/ml) was 0.058 ± 0.010 nmol/mg protein and the SAMe level (HT-29 cells [3]; 6 hrs, mitogen 100 ng/ml) was 0.48 ± 0.04 nmol/mg protein. For the same molecule, the MTA level (HT-29 cells [3]; 16 hrs, mitogen 100 ng/ml) was 0.064 ± 0.015 nmol/mg protein, the SAMe level (HT-29 cells [3]; 16 hrs, mitogen 100 ng/ml) was 0.63 ± 0.02 nmol/mg protein and the Putrescine (HT-29 cells [13]) was 0.27 ± 0.02 nmol/mg protein. For the same molecule, the Spermidine (HT-29 cells [13]) was 2.62 ± 0.02 nmol/mg protein, the Spermine (HT-29 cells [13]) was 14.62 ± 2.70 nmol/mg protein and the ODC expression ([4]; 6 hrs, mitogen 100 ng/ml) was 1.6 ± 0.09 fold of control. The SPD syn expression (SPD syn; 6 hrs, mitogen 100 ng/ml) was 2.3 ± 0.25 fold of control and the SPM syn expression ([5]; 6 hrs, mitogen 100 ng/ml) was 1.0 ± 0.05 fold of control.
